Data on two compounds can be found in US20070098800A1, “Therapeutic compositions” (priority 2002, published 2007).

The test system of data set [1] is experimental model of arthritis created by injecting ovalbumin into the knees of rabbits. As to the kind of experiment: Ovalbumin-induced arthritis (chronic synovitis) in rabbit knees: joint swelling, ovalbumin antibody titers, histological joint damage. Particulars: compared to vehicle controls, during the 3-week period (Example 1). Format: in vivo. The method, then:
(§1) At 3-day intervals over a 3-week period, joint swelling (circumference) is assessed, synovial fluid samples (25 μl) are collected for analysis of salicylate and betamethasone concentrations, and venous blood samples (0.5 ml) are collected for analysis of salicylate and betamethasone serum concentrations and ovalbumin antibody titers. At the end of 3 weeks the animals are sacrificed for histological assessment of joint damage.
(§2) At 3-day intervals over a 3-week period, joint swelling (circumference) was assessed, synovial fluid samples (25 μl) were collected for analysis of salicylate and lidocaine concentrations, and venous blood samples (0.5 ml) were collected for analysis of salicylate and lidocaine serum concentrations and ovalbumin antibody titers. At the end of 3 weeks the animals were sacrificed for histological assessment of joint damage.
At 3-day intervals over a 3-week period, joint swelling (circumference) is assessed, synovial fluid samples (25 μl) are collected for analysis of salicylate and morphine concentrations, and venous blood samples (0.5 ml) are collected for analysis of salicylate and morphine serum concentrations and ovalbumin antibody titers. At the end of 3 weeks the animals are sacrificed for histological assessment of joint damage. […]

The nature of data set [2]: Synovial fluid and serum drug concentrations after single i.a. injection in arthritic rabbits. Particulars: rabbit, single 0.1 ml i.a. injection. The method, then: as §1, §2
At 3-day intervals over a 3-week period, joint swelling (circumference) is assessed, synovial fluid samples (25 μl) are collected for analysis of salicylate and morphine concentrations, and venous blood samples (0.5 ml) are collected for analysis of salicylate and morphine serum concentrations and ovalbumin antibody titers. At the end of 3 weeks the animals are sacrificed for histological assessment of joint damage.
At 3-day intervals over a 3-week period, joint swelling (circumference) is assessed, synovial fluid samples (25 μl) were collected for analysis of salicylate, lidocaine, and morphine concentrations, and venous blood samples (0.5 ml) are collected for analysis of salicylate, lidocaine, and morphine serum concentrations and ovalbumin antibody titers. At the end of 3 weeks the animals are sacrificed for histological assessment of joint damage.

The mark [3] stands for this setting: sampled at 3-day intervals over 3 weeks.

Each structure is given as a SMILES string.

As for `C[C@H]1C[C@H]2[C@@H]3CCC4=CC(=O)C=C[C@]4(C)[C@@]3(F)[C@@H](O)C[C@]2(C)[C@@]1(O)C(=O)COP(=O)([O-])[O-].[Na+].[Na+]` [betamethasone, betamethasone sodium phosphate], in data set [1], the joint swelling entry is recorded as “significantly reduced” and the “serum ovalbumin antibody titers” value is recorded as “significantly reduced”. For the same compound, the “betamethasone levels (synovial fluid and serum)” value in data set [2] (after the early time points) is listed as “undetectable”. Besides, in data set [2] (early time points), the “betamethasone levels in serum” value is “low” and the “betamethasone levels in synovial fluid” value is recorded as “low”.
In the case of `CN1CC[C@]23c4c5ccc(O)c4O[C@H]2[C@@H](O)C=C[C@H]3[C@H]1C5.O=S(=O)(O)O` [morphine, morphine sulfate], in data set [2] (setting [3]), the morphine serum levels entry is “undetectable” and the “morphine synovial fluid levels” value is reported as “undetectable”.
